According to publication PMC5831633 (PLoS ONE, 2018):
Where a name gives a salt, the structure may show the parent alone.

Experiments:
[1] = system: N1 and N2 sialidases; details: cited from earlier work
[2] = biological target: N2 neuraminidase (A/Chicken/HongKong/G9/1997 H9N2) (Influenza A virus, UniProt Q80H78); assay type: biochemical; details: pH 6.5; read-out: Km for the MUNANA substrate
[3] = biological target: N1 wild-type neuraminidase (A/Anhui/1/2005 H5N1) (Influenza A virus, UniProt A0A0C5AGB3); assay type: biochemical; details: pH 6.5; read-out: Km for the MUNANA substrate

Row | Structure (SMILES) | IC50 [1] [µM] | Km [2] [µM] | Km [3] [µM]
1 | CCC(CC)OC1C(NC(C)=O)C(NCc2ccc(-c3ccccc3)cc2)C2C(C(=O)O)C12 (stereo not drawn) [Compound 4a] | 10 | – | –
2 | CC(=O)N[C@H]1[C@H]([C@H](O)[C@H](O)CO)OC(Oc2ccc3c(C)cc(=O)oc3c2)(C(=O)O)C[C@@H]1O (stereo partly drawn) [MUNANA, 2-(4-methylumbelliferyl) α-D-acetylneuraminic acid sodium salt hydrate] | – | 70 ± 6.8 | 12.8 ± 1.9
